Experiments:
lipoamide = compound: NC(=O)CCCCC1CCSS1 [lipoamide]; assay: thermal stability z-score vs DMSO; higher = more thermally stabilized by treatment; conditions: HeLa, lipoamide concentration 100 µM
Procedure: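 Cellular thermal proteome profiling in HeLa cells. Cells were treated with 100 µM lipoamide for 1 h, with or without 1 mM arsenate for a further 1 h, then heated to ten temperatures (37-66.3 °C), and soluble protein was quantified by TMT mass spectrometry relative to 0.1% DMSO controls. The thermal stability score (sum of log2 fold changes minus the abundance score) was transformed to a z-score; mean of n = 3 experiments.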

potassium arsenate = compound: O=[As]([O-])(O)O.[K+] [potassium arsenate]; assay: as above; conditions: HeLa; arsenate concentration 1 mM
Procedure: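 Cellular thermal proteome profiling in HeLa cells treated with 1 mM arsenate for 1 h (DMSO pretreatment), heated to ten temperatures (37-66.3 °C). Soluble protein was quantified by TMT mass spectrometry relative to DMSO controls; the thermal stability score was transformed to a z-score; mean of n = 3 experiments.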

[1] = arsenate co-treatment: 1 mM arsenate 1 h
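Further: each temperature applied for 3 min, abundance score taken as mean log2 fold change at the two lowest temperatures, z-score obtained by mean subtraction and division by SD.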

UniProt Q5SSJ5, sequence (Q5SSJ5 whole entry): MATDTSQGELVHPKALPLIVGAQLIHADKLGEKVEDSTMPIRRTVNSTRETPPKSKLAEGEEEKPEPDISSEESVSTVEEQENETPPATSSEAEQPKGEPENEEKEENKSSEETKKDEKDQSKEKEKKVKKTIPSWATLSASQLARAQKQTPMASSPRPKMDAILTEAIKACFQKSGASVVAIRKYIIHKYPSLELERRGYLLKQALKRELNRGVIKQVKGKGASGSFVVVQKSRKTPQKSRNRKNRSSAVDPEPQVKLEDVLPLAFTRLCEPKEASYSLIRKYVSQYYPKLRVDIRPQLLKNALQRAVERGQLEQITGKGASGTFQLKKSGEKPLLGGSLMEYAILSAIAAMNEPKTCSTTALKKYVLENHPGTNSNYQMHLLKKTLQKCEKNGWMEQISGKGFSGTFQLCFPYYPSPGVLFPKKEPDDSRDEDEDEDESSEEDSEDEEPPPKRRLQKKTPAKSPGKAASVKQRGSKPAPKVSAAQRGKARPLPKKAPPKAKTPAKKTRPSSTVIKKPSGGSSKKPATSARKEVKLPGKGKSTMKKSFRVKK
UniProt Q9Y6M0, sequence (Q9Y6M0 whole entry): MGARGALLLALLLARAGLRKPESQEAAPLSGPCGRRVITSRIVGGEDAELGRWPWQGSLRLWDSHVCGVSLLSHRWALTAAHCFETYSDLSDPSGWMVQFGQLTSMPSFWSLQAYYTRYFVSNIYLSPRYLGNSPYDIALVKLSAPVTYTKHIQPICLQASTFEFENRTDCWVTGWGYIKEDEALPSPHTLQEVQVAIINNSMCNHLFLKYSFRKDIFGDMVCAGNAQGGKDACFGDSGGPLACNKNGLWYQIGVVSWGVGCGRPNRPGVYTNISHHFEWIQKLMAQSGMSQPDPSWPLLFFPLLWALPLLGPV
UniProt Q9Y2G5, sequence (Q9Y2G5 whole entry): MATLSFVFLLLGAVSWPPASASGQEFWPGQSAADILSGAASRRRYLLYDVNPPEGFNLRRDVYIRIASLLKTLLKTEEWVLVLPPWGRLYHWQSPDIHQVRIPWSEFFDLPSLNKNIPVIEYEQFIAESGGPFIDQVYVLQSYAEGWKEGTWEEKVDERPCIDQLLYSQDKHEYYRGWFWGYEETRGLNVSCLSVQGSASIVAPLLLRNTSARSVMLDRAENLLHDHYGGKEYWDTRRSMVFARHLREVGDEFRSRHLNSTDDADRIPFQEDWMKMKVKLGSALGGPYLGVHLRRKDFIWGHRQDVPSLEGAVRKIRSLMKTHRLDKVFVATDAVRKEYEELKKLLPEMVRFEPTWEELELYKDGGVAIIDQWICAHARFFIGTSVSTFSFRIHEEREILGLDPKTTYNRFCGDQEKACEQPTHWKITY
UniProt O95630, sequence (O95630 whole entry): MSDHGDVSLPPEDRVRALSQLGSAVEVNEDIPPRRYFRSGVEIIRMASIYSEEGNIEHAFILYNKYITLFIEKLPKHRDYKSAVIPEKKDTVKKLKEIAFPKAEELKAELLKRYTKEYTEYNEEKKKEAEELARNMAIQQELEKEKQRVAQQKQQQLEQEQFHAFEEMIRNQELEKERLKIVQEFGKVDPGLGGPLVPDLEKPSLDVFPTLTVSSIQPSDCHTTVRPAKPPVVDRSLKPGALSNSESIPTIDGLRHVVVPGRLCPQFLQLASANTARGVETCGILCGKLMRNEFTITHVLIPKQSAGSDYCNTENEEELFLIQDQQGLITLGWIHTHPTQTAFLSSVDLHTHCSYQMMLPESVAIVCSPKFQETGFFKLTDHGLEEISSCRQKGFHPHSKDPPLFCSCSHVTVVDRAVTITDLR
UniProt Q96EK9, sequence (Q96EK9 whole entry): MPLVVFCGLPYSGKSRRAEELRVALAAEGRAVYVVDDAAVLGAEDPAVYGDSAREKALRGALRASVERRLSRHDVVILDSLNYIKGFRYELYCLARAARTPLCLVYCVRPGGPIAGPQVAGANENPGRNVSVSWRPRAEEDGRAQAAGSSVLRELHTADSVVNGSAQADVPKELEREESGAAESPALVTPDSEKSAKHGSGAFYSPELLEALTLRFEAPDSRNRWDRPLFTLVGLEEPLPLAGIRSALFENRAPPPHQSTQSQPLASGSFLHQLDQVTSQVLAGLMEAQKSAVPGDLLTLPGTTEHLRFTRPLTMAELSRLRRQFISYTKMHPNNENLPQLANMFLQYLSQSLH
UniProt Q96A26, sequence (Q96A26 whole entry): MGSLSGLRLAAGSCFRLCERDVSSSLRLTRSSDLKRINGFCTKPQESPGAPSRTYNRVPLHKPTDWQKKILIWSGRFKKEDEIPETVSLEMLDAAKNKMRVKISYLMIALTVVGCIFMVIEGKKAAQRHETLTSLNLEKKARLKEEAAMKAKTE
UniProt P51530, sequence (P51530 whole entry): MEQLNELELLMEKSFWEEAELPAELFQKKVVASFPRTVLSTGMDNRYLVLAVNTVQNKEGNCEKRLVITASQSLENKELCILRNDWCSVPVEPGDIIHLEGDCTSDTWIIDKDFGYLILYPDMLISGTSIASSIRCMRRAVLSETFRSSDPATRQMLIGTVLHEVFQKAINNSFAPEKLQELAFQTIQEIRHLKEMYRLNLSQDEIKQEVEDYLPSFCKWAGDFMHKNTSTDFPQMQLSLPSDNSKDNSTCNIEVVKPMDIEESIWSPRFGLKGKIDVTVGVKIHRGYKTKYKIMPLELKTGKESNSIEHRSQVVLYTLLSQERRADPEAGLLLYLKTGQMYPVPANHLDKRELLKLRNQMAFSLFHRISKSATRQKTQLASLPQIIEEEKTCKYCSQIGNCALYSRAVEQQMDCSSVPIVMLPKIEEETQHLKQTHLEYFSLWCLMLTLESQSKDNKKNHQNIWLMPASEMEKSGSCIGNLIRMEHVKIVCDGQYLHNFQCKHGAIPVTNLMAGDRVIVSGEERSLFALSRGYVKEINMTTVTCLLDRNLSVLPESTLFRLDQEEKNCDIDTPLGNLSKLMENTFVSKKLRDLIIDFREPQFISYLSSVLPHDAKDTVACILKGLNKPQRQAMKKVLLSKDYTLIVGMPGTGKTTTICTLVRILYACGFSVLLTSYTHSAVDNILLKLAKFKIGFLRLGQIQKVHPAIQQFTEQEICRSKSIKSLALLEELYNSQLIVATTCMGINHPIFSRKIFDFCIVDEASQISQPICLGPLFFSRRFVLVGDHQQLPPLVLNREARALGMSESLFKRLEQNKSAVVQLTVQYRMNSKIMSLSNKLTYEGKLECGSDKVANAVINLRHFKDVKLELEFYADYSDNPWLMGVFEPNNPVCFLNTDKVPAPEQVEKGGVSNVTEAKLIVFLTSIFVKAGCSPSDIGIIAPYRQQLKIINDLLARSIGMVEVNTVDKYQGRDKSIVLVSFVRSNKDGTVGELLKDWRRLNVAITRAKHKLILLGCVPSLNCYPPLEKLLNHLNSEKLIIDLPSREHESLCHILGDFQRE
UniProt Q8IUF8, sequence (Q8IUF8 whole entry): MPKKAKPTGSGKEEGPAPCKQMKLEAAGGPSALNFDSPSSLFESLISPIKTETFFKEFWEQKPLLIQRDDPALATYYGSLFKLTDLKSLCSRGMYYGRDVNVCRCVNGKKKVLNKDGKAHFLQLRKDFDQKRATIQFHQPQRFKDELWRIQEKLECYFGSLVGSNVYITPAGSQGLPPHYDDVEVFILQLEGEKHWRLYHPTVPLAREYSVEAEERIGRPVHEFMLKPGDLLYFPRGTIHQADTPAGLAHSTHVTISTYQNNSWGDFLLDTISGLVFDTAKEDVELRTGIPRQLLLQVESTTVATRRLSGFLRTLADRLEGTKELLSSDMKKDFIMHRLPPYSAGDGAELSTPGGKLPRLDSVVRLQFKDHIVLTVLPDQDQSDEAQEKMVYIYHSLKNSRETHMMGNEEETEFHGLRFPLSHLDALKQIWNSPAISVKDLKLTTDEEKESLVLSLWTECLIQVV
UniProt Q9GZZ1, sequence (Q9GZZ1 whole entry): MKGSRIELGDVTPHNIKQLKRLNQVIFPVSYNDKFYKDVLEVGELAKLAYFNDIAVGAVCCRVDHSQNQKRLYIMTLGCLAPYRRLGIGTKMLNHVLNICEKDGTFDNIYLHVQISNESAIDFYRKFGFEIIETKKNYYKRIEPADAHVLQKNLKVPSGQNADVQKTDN
UniProt O00487, sequence (O00487 whole entry): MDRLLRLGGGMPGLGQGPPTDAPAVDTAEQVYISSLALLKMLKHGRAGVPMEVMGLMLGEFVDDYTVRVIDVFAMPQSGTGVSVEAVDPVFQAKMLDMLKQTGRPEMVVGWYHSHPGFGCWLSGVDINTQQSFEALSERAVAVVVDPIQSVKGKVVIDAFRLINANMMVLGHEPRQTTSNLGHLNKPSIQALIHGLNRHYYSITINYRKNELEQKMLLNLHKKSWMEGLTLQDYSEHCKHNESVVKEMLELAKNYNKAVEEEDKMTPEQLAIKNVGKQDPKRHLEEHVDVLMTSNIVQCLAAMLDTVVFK
UniProt Q9H0R8, sequence (Q9H0R8 whole entry, looked up): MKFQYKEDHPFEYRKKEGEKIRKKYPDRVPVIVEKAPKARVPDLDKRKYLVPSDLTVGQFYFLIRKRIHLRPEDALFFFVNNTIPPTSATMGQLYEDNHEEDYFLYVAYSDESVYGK
UniProt Q9H6B4, sequence (Q9H6B4 whole entry): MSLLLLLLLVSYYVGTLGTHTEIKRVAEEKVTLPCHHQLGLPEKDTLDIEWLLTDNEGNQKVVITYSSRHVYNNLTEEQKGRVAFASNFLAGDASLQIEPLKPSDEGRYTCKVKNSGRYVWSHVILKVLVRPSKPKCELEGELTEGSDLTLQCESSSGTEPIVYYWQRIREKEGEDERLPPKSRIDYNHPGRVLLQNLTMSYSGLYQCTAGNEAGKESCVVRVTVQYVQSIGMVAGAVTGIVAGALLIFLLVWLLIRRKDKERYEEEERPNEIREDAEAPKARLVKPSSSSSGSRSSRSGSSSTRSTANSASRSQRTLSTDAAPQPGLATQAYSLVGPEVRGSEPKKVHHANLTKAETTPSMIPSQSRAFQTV
UniProt Q9BZL1, sequence (Q9BZL1 whole entry): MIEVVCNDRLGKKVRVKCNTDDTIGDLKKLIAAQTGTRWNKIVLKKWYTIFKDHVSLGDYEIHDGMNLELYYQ

Row | Target | thermal stability z-score (lipoamide; [1]) | thermal stability z-score (lipoamide; arsenate co-treatment: none) | thermal stability z-score (potassium arsenate)
1 | DNA2 (UniProt P51530) | -0.0519 | -0.0211 | -0.131
2 | NVL (UniProt O15381) | -0.0288 | -0.0652 | 0.0113
3 | CELSR2 (UniProt Q9HCU4) | -1.53 | -2.3 | -0.894
4 | GABARAPL1 (UniProt Q9H0R8) | -1.22 | -2.02 | -0.849
5 | NUP107 (UniProt P57740) | -0.163 | -0.0082 | 0.77
6 | PRSS21 (UniProt Q9Y6M0) | -3 | -2.45 | 1.03
7 | MAX (UniProt P61244) | 2.75 | 2.05 | 2.9
8 | AHNAK2 (UniProt Q8IVF2) | 0.924 | 0.899 | 1.42
9 | PSMD14 (UniProt O00487) | 0.501 | 0.524 | -0.0143
10 | MRPL22 (UniProt Q9NWU5) | 0.32 | 0.464 | 0.467
11 | RNF220 (UniProt Q5VTB9) | -0.19 | -0.015 | -0.283
12 | COQ3 (UniProt Q9NZJ6) | 0.083 | 0.759 | 1.9
13 | PNPLA6 (UniProt Q8IY17) | 0.758 | 0.548 | 0.246
14 | POFUT2 (UniProt Q9Y2G5) | -1.74 | -2.4 | -0.177
15 | CLMP (UniProt Q9H6B4) | 0.616 | 1.03 | -0.738
16 | GNL1 (UniProt P36915) | -0.411 | -0.369 | 0.175
17 | KTI12 (UniProt Q96EK9) | 0.014 | -0.222 | -0.224
18 | ZNF277 (UniProt Q9NRM2) | 0.365 | 0.166 | -0.515

Row | Target | thermal stability z-score (lipoamide; [1]) | thermal stability z-score (lipoamide; arsenate co-treatment: none) | thermal stability z-score (potassium arsenate)
19 | UBL5 (UniProt Q9BZL1) | -0.115 | -0.0438 | -0.107
20 | NAA50 (UniProt Q9GZZ1) | 0.872 | 0.589 | 0.502
21 | ATXN2L (UniProt Q8WWM7) | 0.44 | 0.347 | -0.118
22 | GAR1 (UniProt Q9NY12) | -0.515 | -0.354 | -0.376
23 | CLTC (UniProt Q00610) | 0.447 | 0.409 | -0.263
24 | STAMBP (UniProt O95630) | -0.0484 | -7.9e-05 | 1.23
25 | FNBP1 (UniProt Q96RU3) | 0.146 | 0.0859 | 0.336
26 | MTHFD1L (UniProt Q6UB35) | -0.786 | -0.399 | -0.123
27 | NEXN (UniProt Q0ZGT2) | 0.00122 | 0.037 | 0.0665
28 | FBXO30 (UniProt Q8TB52) | -0.102 | -0.208 | -0.959
29 | HP1BP3 (UniProt Q5SSJ5) | -0.693 | -0.792 | -1.08
30 | FOXK1 (UniProt P85037) | 0.345 | -0.0499 | 1.86
31 | FAM162A (UniProt Q96A26) | 0.884 | 0.302 | -0.244
32 | PKD2 (UniProt Q13563) | 0.277 | 0.13 | 0.16
33 | IFT122 (UniProt Q9HBG6) | 0.185 | 0.177 | 0.188
34 | SND1 (UniProt Q7KZF4) | 0.317 | 0.479 | -1.08
35 | MINA (UniProt Q8IUF8) | 0.0507 | 0.508 | -1.34
